Where two headings read alike, the source gives them in different places.
Tests used:
histamine H3 receptor = molecular target: T1, histamine H3 receptor (Rattus norvegicus, UniProt Q9QYN8); assay: inhibition of binding of [3H]-N-alpha-methylhistamine to rat brain membranes; conditions: for IC50: rat brain membranes, 3HNα-methylhistamine as radioligand
T1 construct: from tissue
Protocol: A series of compounds were prepared and tested for their histamine H3 receptor antagonist activity. The antagonist activity of the compounds was detected by observing inhibition of (^3 H)-N-(alpha)methylhistamine activity on rat brain membranes.
The various compounds were tested for the ability to bind to the histamine H3 receptor. A binding assay in a rat brain membrane preparation, based on inhibition of binding of [^3 H]-N-alpha-methylhistamine using excess unlabeled alpha-methylhistamine to account for nonspecifc binding, was developed.

male albino CF-1 mice = assay: behavioral effects: sleep induced by (R)α-methylhistamine in mice; format: in vivo
Protocol: The overall strategy to show central nervous system antagonist activity was to challenge effects of the agonist (R)α-methylhistamine. Therefore, the first objective was to establish a dose response curve for behavioral effects of (R)α-methylhistamine. […] Saline or (R)α-methylhistamine in saline was injected i.p. in a volume≤0.4 ml. […] Animals were scored for the presence (1) or absence (0) of the behavior and the results were reported as the accumulated score for a 30 minute period (maximum score=9).
To assess the effects of antagonists, they were administered with the (R)α-methylhistamine in saline.

Kainate = conditions: reference compound; cited from earlier work
[1] = test system: H3 receptors in the cortex; assay: blood-brain barrier penetration by ex vivo binding of [3H]-Nα-methylhistamine to cortical homogenate of injected rats; format: in vivo, rat
Protocol: Blood-brain barrier penetration in rats was assessed by an ex vivo binding procedure. Young adult male Long-Evans rats were injected i.p. with saline or H3 antagonists in saline. At various times after injection animals were sacrificed, the cortex was removed, homogenized in 50 mM Na/K-phosphate buffer, pH 7.4, and the binding of 1 nM [^3 H]-N^[…] -methylhistamine was measured using 400 μg protein of the homogenate. Nonspecific binding was accounted for by the inclusion of excess thioperamide in some samples. Under these conditions, the binding was approximately 90% specific.

rats = conditions: cited from earlier work
dogs = conditions: high dose, repeated dose; cited from earlier work
Glycine [2] = assay: NOVASCREEN receptor selectivity assay (excitatory amino acids); format: binding; conditions: 10^-5 M
From the text: (§1) Bolded values represent inhibition of fifty percent or greater.

Glycine [3] = assay: NOVASCREEN receptor selectivity assay (inhibitory amino acids); format: binding; conditions: 10^-5 M
From the text: as §1

Calcium = assay: NOVASCREEN receptor selectivity assay (channel proteins, Nifedipine reference); format: binding; conditions: 10^-5 M
From the text: as §1

[4] = format: binding; conditions: 10^-5 M; w-Conotoxin reference
[5] = toxicity observed in all testing to date; format: in vivo; conditions: even at high doses
Glycine [6] = conditions: read-out: Reference Ki; reference compound; inhibitory; cited from earlier work
[7] = 2, 5, and 10 mg/kg i.p., 15 min after injection

T1 sequence (Q9QYN8 whole entry): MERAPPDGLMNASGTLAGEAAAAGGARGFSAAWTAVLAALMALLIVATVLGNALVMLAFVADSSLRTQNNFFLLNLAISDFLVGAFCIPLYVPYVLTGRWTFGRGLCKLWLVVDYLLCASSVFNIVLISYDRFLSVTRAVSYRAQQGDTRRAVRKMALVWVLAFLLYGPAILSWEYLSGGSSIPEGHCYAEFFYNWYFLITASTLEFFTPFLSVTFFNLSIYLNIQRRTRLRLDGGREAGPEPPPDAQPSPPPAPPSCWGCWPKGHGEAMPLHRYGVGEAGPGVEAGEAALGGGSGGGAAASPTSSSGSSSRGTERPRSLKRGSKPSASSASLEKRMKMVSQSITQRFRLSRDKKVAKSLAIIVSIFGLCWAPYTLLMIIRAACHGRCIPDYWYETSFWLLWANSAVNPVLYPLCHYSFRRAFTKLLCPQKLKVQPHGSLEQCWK

CC(C)(C)C(=O)N1CCC(c2cn(C(=O)C(C)(C)C)cn2)CC1 [Compound 44]
IC50 (histamine H3 receptor; Table I first part): inactive

O=C(CCCCC1CCCCC1)N1CCC(c2c[nH]cn2)CC1 [compound 2016]
effect on soporific effect of R(-)-alphamethylhistamine (male albino CF-1 mice; mice, both drugs administered peripherally): reverses the soporific effect

N#CN=C(NC1CCCCC1)N1CCC(c2c[nH]cn2)CC1 [Compound 48]
binding to the H3-receptor (in words) (histamine H3 receptor): ineffective | IC50 (histamine H3 receptor; Table I first part): inactive

CC(C)(C)C(=O)N1CCC(c2c[nH]cn2)CC1 [Compound 14]
IC50 (histamine H3 receptor; Table I second part): inactive

N#CN=C(Oc1ccccc1)N1CCC(c2c[nH]cn2)CC1 [Compound 47]
binding to the H3-receptor (in words) (histamine H3 receptor): ineffective

Cn1cnc(C2CCN(C(=O)c3ccccc3)CC2)c1 [Compound 42]
IC50 (histamine H3 receptor; Table I first part): inactive

CC(C)(C)OC(=O)N1CCC(c2cn(C(=O)OC(C)(C)C)cn2)CC1 [Compound 45]
IC50 (histamine H3 receptor; Table I first part): inactive

N#CN=C(Nc1ccc(-c2c[nH]cn2)cc1)NC1CCCCC1 [Compound 50]
binding to the H3-receptor (in words) (histamine H3 receptor): ineffective | IC50 (histamine H3 receptor; Table I second part): inactive

O=C(C(C1CCCCC1)C1CCCCC1)N1CCC(c2cnc[nH]2)CC1 [Compound 9]
IC50 (histamine H3 receptor; Table I second part): inactive

C=C(C)[C@H]1CN[C@H](C(=O)O)[C@H]1CC(=O)O [Kainic Acid]
Ki (Kainate): 0.0249 µM

O=C(Cc1ccccc1)N1CCC(c2c[nH]cn2)CC1 [Compound 4]
IC50 (histamine H3 receptor; Table I first part, read-out: IC50): 1.4 ± 0.437 µM

S=C(NC1CCCCC1)N1CCC(c2cnc[nH]2)CC1 [Thioperamide, reference compound]
effect on sleep induced by R(-)-α-methylhistamine (male albino CF-1 mice; 30 mg/kg (R)α-methylhistamine): inhibit the soporific effect | behavior with antagonist alone (male albino CF-1 mice; in the absence of the α-methylhistamine H3 receptor agonist): very active, exhibiting normal behaviors | binding of [3H]-Nα-methylhistamine to H3 receptors in the cortex [1, 7]: decreased the binding | penetration of the blood-brain barrier [1, 7]: able to penetrate the blood-brain barrier | dose needed in vivo to inhibit histamine release from the brain (rats): relatively high doses are required

O=C(CC12CC3CC(CC(C3)C1)C2)N1CCC(c2cnc[nH]2)CC1 [Compound 8]
IC50 (histamine H3 receptor; Table I second part): inactive

C/N=C(\S)NCCSCc1[nH]cnc1C [metiamide]
proportion of dogs that died acutely with pulmonary edema and pleural effusion (dogs): < 10%

O=C(C1CCCCC1)N1CCC(c2c[nH]cn2)CC1 [Compound 41]
IC50 (histamine H3 receptor; Table I first part): inactive

O=C(c1ccccc1)N1CCC(c2cn(C(=O)c3ccccc3)cn2)CC1 [Compound 43]
IC50 (histamine H3 receptor; Table I first part): inactive

O=C(CCCCC1CCCCC1)N1CCC(c2c[nH]cn2)CC1 [Compound 1, 4-(1-Cyclohexylvaleroyl-4-Piperidyl) 1H-Imidazole]
Initial Percent Inhibition (Average; N = 2) (Glycine [2]): 1.8% | Initial Percent Inhibition (Average; N = 2) (Glycine [3]): 17.4% | Initial Percent Inhibition (Average; N = 2) (Calcium): 8.1% | Initial Percent Inhibition (Average; N = 2) [4]: 1.9% | toxicity observed [5]: no toxicity | effect on sleep induced by R(-)-α-methylhistamine (male albino CF-1 mice; 25 mg/kg (R)α-methylhistamine): inhibited the soporific effect | effectiveness as an H3-receptor antagonist in vivo (male albino CF-1 mice; in vivo assays): effective as an H3 -receptor antagonist | penetration of the blood-brain barrier ([1]; 50 and 70 mg/kg i.p., one hour after injection): penetrates the blood-brain barrier | penetration of the blood-brain barrier compared with thioperamide ([1]; taking into account the difference in affinity): at least as well as thioperamide

C[C@@H](N)Cc1c[nH]cn1 [(R)α-methylhistamine, reference compound]
effect on sleeping (male albino CF-1 mice; i.p., one hour after injection, also evident at 30 minutes): dose-dependent (range of 15 to 35 mg/kg) increase in sleeping

O=C(c1ccccc1)N1CCC(c2cn(Cc3ccccc3)cn2)CC1 [Compound 46]
IC50 (histamine H3 receptor; Table I first part): inactive

O=C1C[C@@H]2OCC=C3CN4CC[C@]56c7ccccc7N1[C@H]5[C@H]2[C@H]3C[C@H]46 [Strychinine Nitrate]
Ki (Glycine [6]): 0.0335 µM

Reference: patent US5639775A, “4-[4'-piperodinyl or 3'-pirrolidinyl] substituted imidazoles as H3 -receptor antagonists and therapeutic uses thereof” (The University of Toledo, priority 1994, dated 1997)
